Results: PubChem BioAssay AID2060612 (Molecular Pharmacology Branch, DTP, NCI, 2025)
Values joined by “and” are separate entries in the source; they are usually repeats but may differ in a detail not shown here. Equal values may be shown once.

Test system: 565232-114-T-J1-PDC complex spheroid viability
Assay: Anticancer human tumor 565232-114-T-J1-PDC patient-derived bladder carcinoma cell line growth inhibition [CLK]
Details: for viability, T/C: stronger effect = lower value
Text: A high-throughput screen of multi-cell type tumor spheroids was designed to identify active combinations of […] and targeted small molecules. Complex spheroids include a stromal component modeled by human endothelial cells (HUVEC) and fibroblasts modeled by human mesenchymal stem cells (MSCs). The concentration ranges selected for each drug and investigational agent were based upon clinically achievable concentrations if the clinical Cmax of the agent was known.
Compounds. The drugs and investigational agents: cirtuvivint (SM08502; NSC835563), CC-671 (NSC850746), vemurafenib (NSC761431), tapotoclax (NSC804041), sotorasib (NSC818433), adagrasib (NSC831453), MRTX-1133 (NSC836407), BAY2416964 (NSC825713), copanlisib (NSC816437), inavolisib (NSC800729), abemaciclib (NSC768073), osimertinib (NSC779217), entinostat (NSC756642), eltanexor (KPT-8602, NSC794443), venetoclax (NSC766270), ceralasertib (NSC777638), bortezomib (NSC756655), olaparib (NSC753686), talazoparib (NSC767125), alisertib (NSC759677), peposertib (NSC802822), gemcitabine (NSC613327), 5-fluorouracil (NSC19893), SN-38 (NSC673596), oxaliplatin (NSC266046), paclitaxel (NSC125973), and doxorubicin (NSC123127), were obtained from the National Cancer Institute (NCI) Developmental Therapeutics Program Chemical Repository. The FDA-approved anticancer drug set is available from the Developmental Therapeutics Program at https://dtp.cancer.gov/organization/dscb/obtaining/available plates.htm. […] The stock solutions were prepared in dimethyl sulfoxide (DMSO, Sigma-Aldrich, St. Louis, MO, cat. D2650), except for the platinum complexes which were prepared in saline (Quality Biological, Gaithersburg, MD, cat. 114-055-101), at 800-fold the tested concentration and stored at -70 degrees C prior to their use. All drugs and investigational agents were tested over a range starting from a high concentration at or near the clinical Cmax and decreasing in half-log increments. If the clinical Cmax for an agent had not been determined, the highest concentration tested was 10 microM.
Cell Culture. All cells were maintained in an incubator at 37 degrees C and 5% CO2 with 95% humidity. The PDC lines were cultured according to standard operating procedures established by the NCI PDMR. Briefly, all PDCs were thawed and cultured in Matrigel-coated flasks prepared with a working solution of 1X Ham's F-12 nutrient mix, without supplementation (Invitrogen, Waltham, MA, cat. 11765054), 100 U/mL penicillin-streptomycin (Invitrogen, cat. 15140122), and 2.5% Matrigel (Corning Inc., Corning, NY, cat. 354248) for the first three passages. The 947758-054-R-J2-PDC line was cultured in 6B/Colon 1A media, which includes advanced DMEM/F-12 (Thermo Fisher Scientific, cat. 12634028), 10 mM HEPES (Thermo Fisher Scientific, cat. 15630080), 1X GlutaMAX supplement (Thermo Fisher Scientific, cat. 35050061), 0.1 mg/mL primocin (InvivoGen, cat. ant-pm-2), 10% defined fetal bovine serum, heat inactivated (HyClone Laboratories Inc., cat. SH30070.03HI), 1.25 mM N-Acetyl-L-cysteine (Sigma-Aldrich, cat. A9165), 10 mM nicotinamide (Sigma-Aldrich, cat. N0636), 1X B-27 supplement (Thermo Fisher Scientific, cat. 17504044), 1X N-2 supplement (Thermo Fisher Scientific, cat. 17502048), and 10 microM Y-27632 dihydrochloride (Tocris Bioscience, cat. 1254). The 876862-298-R-J1-PDC was cultured in 6E media, which includes all 6B/Colon 1A media components plus 50% L-WRN conditioned media (ATCC, cat. CRL-3276), 50 ng/mL recombinant human EGF recombinant protein (hEGF; Thermo Fisher Scientific, cat. PHG0311), 10 ng/mL recombinant human fibroblast growth factor 10 (hGFG-10; PeproTech, cat. 100-26), 1 ng/mL recombinant human fibroblast growth factor 2 (hFGF-2; PeproTech, cat. 100-18B), and 1 µM prostaglandin E2 (PGE2; Tocris, cat. 2296). The 227483-062-R1-J1-PDC line was cultured in Panc media, containing all 6E components except hFGF-2, with the addition of 500 nM SB-431542 (Selleckchem, cat. S1067) and 10 nM gastrin (Tocris, cat. 3006). […]
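Also: spheroids exposed to compounds for 7 days before readout.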
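For viability, T/C in this document: 100% = DMSO vehicle wells with luminescence normalized to vehicle control.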

CC(CO)NC(=O)c1cc(-c2ccc(Cl)cc2)nn(-c2cnn(C)c2)c1=O (centres undefined)
viability, T/C (compound 0.0316 µM): 97.3% and 115%
viability, T/C (compound 0.1 µM): 85.3% and 77.5%
viability, T/C (compound 0.316 µM): 83.9% and 109%
viability, T/C (compound 1 µM): 90.8% and 89.4%
viability, T/C (compound 3.16 µM): 94.1% and 97.8%
viability, T/C (compound 10 µM): 90.5% and 91.3%
IC50 (curve of compound): > 10000 nM

CC(CO)NC(=O)c1cc(-c2ccc(Cl)cc2)nn(-c2cnn(C)c2)c1=O (centres undefined) + CN1CCN(c2cc(C(=O)Nc3cc4cc(-c5cnn(C)c5)ccc4cn3)ccn2)CC1
IC50 (curve of first compound, second compound 0.0316 µM): > 10000 nM
IC50 (curve of first compound, second compound 0.1 µM): > 10000 nM
IC50 (curve of first compound, second compound 0.316 µM): < 31.6 nM
IC50 (curve of first compound, second compound 1 µM): < 31.6 nM
IC50 (curve of first compound, second compound 3.16 µM): < 31.6 nM
IC50 (curve of first compound, second compound 10 µM): < 31.6 nM
viability, T/C (second compound 0.0316 µM, first compound 0.0316 µM): 104%
viability, T/C (second compound 0.0316 µM, first compound 0.1 µM): 73.7%
viability, T/C (second compound 0.0316 µM, first compound 0.316 µM): 86.5%
viability, T/C (second compound 0.0316 µM, first compound 1 µM): 86.2%
viability, T/C (second compound 0.0316 µM, first compound 3.16 µM): 93.7%
viability, T/C (second compound 0.0316 µM, first compound 10 µM): 103%
viability, T/C (second compound 0.1 µM, first compound 0.0316 µM): 92%
viability, T/C (second compound 0.1 µM, first compound 0.1 µM): 91%
viability, T/C (second compound 0.1 µM, first compound 0.316 µM): 96.7%
viability, T/C (second compound 0.1 µM, first compound 1 µM): 89.7%
viability, T/C (second compound 0.1 µM, first compound 3.16 µM): 124%
viability, T/C (second compound 0.1 µM, first compound 10 µM): 120%
viability, T/C (second compound 0.316 µM, first compound 0.0316 µM): 22.2%
viability, T/C (second compound 0.316 µM, first compound 0.1 µM): 21%
viability, T/C (second compound 0.316 µM, first compound 0.316 µM): 27.3%
viability, T/C (second compound 0.316 µM, first compound 1 µM): 23.4%
viability, T/C (second compound 0.316 µM, first compound 3.16 µM): 24.6%
viability, T/C (second compound 0.316 µM, first compound 10 µM): 26.9%
viability, T/C (second compound 1 µM, first compound 0.0316 µM): 0.2%
viability, T/C (second compound 1 µM, first compound 0.1 µM): 2.31%
viability, T/C (second compound 1 µM, first compound 0.316 µM): 1.11%
viability, T/C (second compound 1 µM, first compound 1 µM): 0.21%
viability, T/C (second compound 1 µM, first compound 3.16 µM): 2.03%
viability, T/C (second compound 1 µM, first compound 10 µM): 3.08%
viability, T/C (second compound 3.16 µM, first compound 0.0316 µM): 0.21%
viability, T/C (second compound 3.16 µM, first compound 0.1 µM): 0.65%
viability, T/C (second compound 3.16 µM, first compound 0.316 µM): 4.15%
viability, T/C (second compound 3.16 µM, first compound 1 µM): 0.22%
viability, T/C (second compound 3.16 µM, first compound 3.16 µM): 2.88%
viability, T/C (second compound 3.16 µM, first compound 10 µM): 2.53%
viability, T/C (second compound 10 µM, first compound 0.0316 µM): 0.26%
viability, T/C (second compound 10 µM, first compound 0.1 µM): 0.28%
viability, T/C (second compound 10 µM, first compound 0.316 µM): 2.2%
viability, T/C (second compound 10 µM, first compound 1 µM): 1.23%
viability, T/C (second compound 10 µM, first compound 3.16 µM): 4.13%
viability, T/C (second compound 10 µM, first compound 10 µM): 3.6%
